According to patent publication US8981084B2, “Oxadiazole HDAC inhibitors” (Tempero Pharmaceuticals, Inc., priority 2011, dated 2015):

Target: T1, Recombinant HDAC9 isoform 4 (Homo sapiens, UniProt Q9UKV0)
T1 construct: purchased BPS Bioscience
Experiment: Histone Deacetylase 9 (HDAC9) inhibition assay, fluorogenic substrate
Format: biochemical
Conditions: mean of a minimum of 2 experiments; 11 point 3x dilution series from 100 uM; Class IIa HDAC-specific fluorogenic substrate 4.5 uM; read-out: mean pIC50, inhibition of HDAC9 (converted)
From the text: Histone Deacetylase 9 (HDAC9) Inhibition Assay:
Novel histone deacetylase 9 (HDAC9) inhibitors were characterized in an in vitro biochemical functional assay. The assay measures the increased fluorescent signal due to deacetylation, by HDAC9, of a fluorogenic substrate. The commercial available substrate is Class IIa HDAC-specific and contains an acetylated lysine residue and would releases the fluorescent signal upon trypsin cleavage after deacetylation.
Specifically, test compounds diluted to various concentrations in 100% DMSO are first dispensed into 384-well assay plates. Recombinant HDAC9 isoform 4 (purchased from BPS Bioscience) in complete assay buffer (50 mM Tris-HCl, pH 8.0, 137 mM NaCl, 2.7 mM KCl, 1 mM MgCl2, 0.05% BSA & 0.005% Tween 20) were then added to each well (5 uL/well) using Multidrop Combi (Thermo Scientific), followed by 5 uL/well substrate (purchased from BPS Bioscience, 4.5 uM final). After 45 minutes incubation at room temperature, 10 uL 2× developer solution (assay buffer with 40 uM Trypsin and 20 uM Trichostatin A) was added. The plates were then incubated 1 hour at room temperature before reading in fluorescent intensity mode at 450 nm in an Envision (Perkin Elmer) plate reader. Percent Inhibition of HDAC9 activity by compounds in each test wells was calculated by normalizing to fluorescent signal in control wells containing DMSO only. The pIC50s value of test compounds were calculated from non-linear curve fitting, using ActivityBase5 data analysis tool (IDBS), from 11 point 3× dilution series starting from 100 uM final compound concentration.
For dose response experiments, normalized data were fit by ABASE/XC50 using the equation y=a+(b−a)/(1+(10^×/10^c)^d), where a is the minimum % activity, b is the maximum % activity, c is the pIC50, d is the Hill slope.
The pIC50s are averaged to determine a mean value, for a minimum of 2 experiments. […] For instance, the compounds of Examples 1, 38, 61 and 79 inhibited HDAC9 in the above method with a mean pIC50 of >6.

T1 sequence (Q9UKV0 1-1066 isoform Q9UKV0-5): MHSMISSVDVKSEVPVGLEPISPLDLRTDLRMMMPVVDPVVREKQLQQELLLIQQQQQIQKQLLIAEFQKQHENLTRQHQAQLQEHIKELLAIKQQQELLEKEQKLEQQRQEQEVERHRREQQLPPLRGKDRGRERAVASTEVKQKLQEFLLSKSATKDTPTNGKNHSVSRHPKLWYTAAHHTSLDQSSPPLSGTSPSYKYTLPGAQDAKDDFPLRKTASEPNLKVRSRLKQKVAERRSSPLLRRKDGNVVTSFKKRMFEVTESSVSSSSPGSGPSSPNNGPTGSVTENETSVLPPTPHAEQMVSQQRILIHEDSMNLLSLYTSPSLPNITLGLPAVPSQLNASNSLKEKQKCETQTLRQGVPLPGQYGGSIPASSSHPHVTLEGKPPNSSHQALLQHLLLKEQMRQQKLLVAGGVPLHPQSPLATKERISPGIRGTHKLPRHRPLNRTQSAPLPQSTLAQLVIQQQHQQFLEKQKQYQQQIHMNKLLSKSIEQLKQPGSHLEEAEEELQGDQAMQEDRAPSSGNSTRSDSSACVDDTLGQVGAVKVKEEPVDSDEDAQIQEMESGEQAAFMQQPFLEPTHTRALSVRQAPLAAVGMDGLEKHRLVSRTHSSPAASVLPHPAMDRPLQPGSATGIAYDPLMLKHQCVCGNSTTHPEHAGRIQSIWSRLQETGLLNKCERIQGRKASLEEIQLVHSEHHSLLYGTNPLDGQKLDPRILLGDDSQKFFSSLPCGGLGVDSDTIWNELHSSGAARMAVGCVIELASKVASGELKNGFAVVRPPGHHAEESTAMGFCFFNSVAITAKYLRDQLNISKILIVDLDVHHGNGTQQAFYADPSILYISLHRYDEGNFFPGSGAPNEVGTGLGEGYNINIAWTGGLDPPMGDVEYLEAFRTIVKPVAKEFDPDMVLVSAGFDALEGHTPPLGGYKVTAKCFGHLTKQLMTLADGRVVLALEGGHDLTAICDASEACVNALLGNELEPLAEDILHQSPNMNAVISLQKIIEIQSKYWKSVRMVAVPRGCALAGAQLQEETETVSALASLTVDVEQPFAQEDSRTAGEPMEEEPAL

IC50 [nM]	SMILES
< 1000	N#Cc1ccc(N2CCN(C(=O)c3cccc(-c4ccc(C(=O)C(F)(F)F)s4)c3)CC2)nc1 [Example 61, 6-(4-(3-(5-(2,2,2-Trifluoroacetyl)thiophen-2-yl)benzoyl)piperazin-1-yl)nicotinonitrile]
< 1000	O=C(c1cccc(-c2noc(C(F)(F)F)n2)c1)N1CCCN(c2ccc(C(F)(F)F)cn2)CC1 [Example 1, (3-(5-(Trifluoromethyl)-1,2,4-oxadiazol-3-yl)phenyl)(4-(5-(trifluoromethyl)pyridin-2-yl)-1,4-diazepan-1-yl)methanone]
< 1000	N#Cc1ccc(N2CCN(C(=O)c3cccc(-c4noc(C(F)(F)F)n4)c3)CC2)cc1 [Example 38, 4-(4-(3-(5-(Trifluoromethyl)-1,2,4-oxadiazol-3-yl)benzoyl)piperazin-1-yl)benzonitrile]
< 1000	O=C(c1cccc(-c2noc(C(F)(F)F)n2)c1)N1CC(Cc2nc(-c3ccc(F)cc3)cs2)C1 [Example 79, (3-((4-(4-Fluorophenyl)thiazol-2-yl)methyl)azetidin-1-yl)(3-(5-(trifluoromethyl)-1,2,4-oxadiazol-3-yl)phenyl)methanone]
